Data: PMC4721062, “Oxadiazole-2-oxides may have other functional targets, in addition to SjTGR, through which they cause mortality in Schistosoma japonicum” (Parasites & Vectors, 2016)
Entries after “also recorded” stand apart in the source; their conditions may differ. Read-outs that look alike come from different tables or passages of the source.

Assays:
recombinant SjTGR = target: T1, recombinant SjTGR (Schistosoma japonicum, UniProt B5THG7); test: Inhibition of TrxR activity of recombinant SjTGR (DTNB assay); type: biochemical; conditions: 50 nM SjTGR, 1 mM NADPH, 15 min preincubation, DTNB reduction; for IC50: read-out: IC50 of SjTGR
T1 sequence (B5THG7 1-596): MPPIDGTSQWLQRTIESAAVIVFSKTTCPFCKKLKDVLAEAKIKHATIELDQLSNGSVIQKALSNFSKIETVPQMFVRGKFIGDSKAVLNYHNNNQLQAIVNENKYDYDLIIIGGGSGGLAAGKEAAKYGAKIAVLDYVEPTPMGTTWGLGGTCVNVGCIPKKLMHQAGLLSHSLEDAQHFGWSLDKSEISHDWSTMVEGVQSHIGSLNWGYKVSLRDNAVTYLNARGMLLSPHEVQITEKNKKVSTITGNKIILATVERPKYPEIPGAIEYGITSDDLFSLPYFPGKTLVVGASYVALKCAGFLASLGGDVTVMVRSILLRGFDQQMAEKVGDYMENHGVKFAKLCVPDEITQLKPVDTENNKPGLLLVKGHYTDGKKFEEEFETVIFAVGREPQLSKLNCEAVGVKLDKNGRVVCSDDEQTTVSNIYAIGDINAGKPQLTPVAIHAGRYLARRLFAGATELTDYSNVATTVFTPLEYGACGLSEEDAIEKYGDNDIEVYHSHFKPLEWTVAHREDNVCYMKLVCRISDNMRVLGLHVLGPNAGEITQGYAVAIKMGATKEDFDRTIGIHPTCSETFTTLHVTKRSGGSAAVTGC
Description: The purified recombinant SjTGR proteins were produced according to the method described by Song et al.. The inhibition of TrxR activity by the recombinant SjTGR was performed as reported by Rai et al.. Briefly, 50 nM SjTGR and 1 mM NADPH were incubated with different concentrations of oxadiazole-2-oxides (2, 4, 6, 10, 20 μM) for 15 min at room temperature. Then, potassium phosphate buffer (pH 7.4) containing 10 mM EDTA, 100 μM NADPH, and 3 mM DTNB was added to start the reaction. The increase of absorbance at 412 nm was monitored during the first 2 min. All assays were done in triplicate.
50 nM SjTGR and 1 mM NADPH were incubated with different concentrations of oxadiazole-2-oxides (2, 4, 6, 10, 20 μM) for 15 min at room temperature. Then, potassium phosphate buffer (pH 7.4) containing 10 mM EDTA, 100 μM NADPH, 3 mM DTNB was added to start the reaction. The increase in absorbance at 412 nm was monitored during the first 2 min. All assays were done in triplicate. Results shown are the mean ± SD (n = 3)

juvenile S. japonicum = test: microbe, parasite or virus in culture; type: cell-based; conditions: for killing at 2 µM / killing at 5 µM / killing at 50 µM / Killing activity 24hr / Killing activity 48hr / Killing activity 72hr: juvenile worms
Description: Infected Oncomelania hupensis, provided by the Department of Snail Biology, Jiangsu Institute of Parasitic Diseases, were incubated at 25–28 °C, under illumination, for 2 h to hatch S. japonicum cercariae. The cercariae were collected from the water surface with clean cover glass and placed into a centrifuge tube using pre cooled RPMI 1640. Centrifugation was performed for 1 min at 1500 rpm, and then the steps above were repeated. After centrifugation, the supernatant solution was removed. The cercariae at the bottom were washed twice and resuspended with RPMI 1640. Approximately 20–30 cercariae (1 mL of the resuspension medium) were added to one well in a 24-well culture plate. They were incubated overnight at 37 °C with 5 % CO2. The survival rates and number of tails shed were observed under an inverted microscope. Cercariae that had shed their tails were used as juvenile S. japonicum.
20–30 juvenile worms were transferred into each well of a 24-well culture plate, containing 2 mL RPMI 1640 medium, 20 mM HEPES, 100 IU/mL penicillin, […] streptomycin and 10 % fetal bovine serum. Then, oxadiazole-2-oxides (2, 5, 10, and 50 μM), diluted with the RPMI 1640 medium, were added to their allocated wells. The worms in the negative control wells were treated with equal volumes of RPMI 1640 or DMSO and worms treated with AS were observed as positive controls. The juvenile worms’ survival rates were observed under an inverted phase contrast microscope (Leica, Wetzlar, Germany) at 24, 48 and 72 h. Parasite death was defined as an unclear internal structure of the juvenile worms, with incomplete tegument and contents overflowing radially, or unclear internal structure with complete tegument, but having no motor activity during 1 min of continuous observation. All assays were repeated three times.
^b Data collected by visual examination of worm movement and shape; % D = The number of worms dead / The total number of worms observed, and worms dead judged by unclear internal structure of juvenile worms with uncompleted tegument, and contents overflowing radially, or unclear internal structure with complete tegument, but having no motor activity during 1 min of continuous observation. The data presented are the average of three independent experiments.

adult S. japonicum = test: microbe, parasite or virus in culture; type: cell-based
Text: ICR mice (20–22 g), were obtained from the Shanghai Sub-Center of Experimental Animals, Chinese Academy of Sciences. They were maintained at the Department of Experimental Animals, Jiangsu Institute of Parasitic Diseases. To infect each mouse, its abdominal skin was exposed to 50 S. japonica cercariae. All of the mice were executed to collect S. japonica adult worms, through portal vein perfusion, 35 days post-infection. The adult S. japonica collected were washed with RPMI 1640 medium and then kept in RPMI 1640 medium (pH 7.5) with HEPES 20 mM, penicillin (100 IU/mL), streptomycin ([…]) and 10 % fetal bovine serum. Then, two pairs of adult worms were transferred into each well of a 24-well culture plate, with 2 mL of the same medium. The worms were cultured at 37 °C in a humid atmosphere with 5 % CO2.
Adult worms were cultured in a 24-well culture plate for 30–60 min at 37 °C, in a humid atmosphere with 5 % CO2. Then, oxadiazole-2-oxides at different concentrations (10, 25, 50, 100 μM) were added. Equal volumes of RPMI 1640 or DMSO were applied as negative controls, while PZQ was applied as a positive control. The adult worm mobility and parasite survival rates were monitored using an inverted phase contrast microscope, at 24, 48 and 72 h. Parasite death was defined as there being no motor activity during 2 min of continuous observation, and morphological and tegumental alterations. All assays were repeated three times.
^b Data collected by visual examination of worm movement and shape; n.e. […] The data presented are the average of three independent experiments.

[1] = Schistosoma japonicum, 2 μM, 24 h, read-out: Killing activity 24hr
[2] = Schistosoma japonicum, 2 μM, 48 h, read-out: Killing activity 48hr
[3] = Schistosoma japonicum, 2 μM, 72 h, read-out: Killing activity 72hr
[4] = Schistosoma japonicum, 5 μM, 24 h, read-out: Killing activity 24hr
[5] = Schistosoma japonicum, 5 μM, 48 h, read-out: Killing activity 48hr
[6] = Schistosoma japonicum, 5 μM, 72 h, read-out: Killing activity 72hr
[7] = Schistosoma japonicum, 50 μM, 24 h, read-out: Killing activity 24hr
[8] = Schistosoma japonicum, 50 μM, 48 h, read-out: Killing activity 48hr
[9] = Schistosoma japonicum, 50 μM, 72 h, read-out: Killing activity 72hr
[10] = Schistosoma japonicum, adult worms, 100 μM, 24 h, read-out: Killing activity 24hr
[11] = Schistosoma japonicum, adult worms, 100 μM, 48 h, read-out: Killing activity 48hr
[12] = Schistosoma japonicum, adult worms, 100 μM, 72 h, read-out: Killing activity 72hr

SMILES | IC50 of SjTGR (recombinant SjTGR) | IC50 (recombinant SjTGR) | killing at 2 µM (juvenile S. japonicum; [1]) | killing at 2 µM (juvenile S. japonicum; [2]) | killing at 2 µM (juvenile S. japonicum; [3]) | killing at 5 µM (juvenile S. japonicum; [4]) | killing at 5 µM (juvenile S. japonicum; [5]) | killing at 5 µM (juvenile S. japonicum; [6]) | killing at 50 µM (juvenile S. japonicum; [7]) | killing at 50 µM (juvenile S. japonicum; [8]) | Killing activity 24hr (juvenile S. japonicum; 10 μM, 24 h) | Killing activity 48hr (juvenile S. japonicum; 10 μM, 48 h) | Killing activity 72hr (juvenile S. japonicum; 10 μM, 72 h) | Killing activity 24hr (adult S. japonicum; adult worms, 10 μM, 24 h) | Killing activity 48hr (adult S. japonicum; adult worms, 10 μM, 48 h) | Killing activity 72hr (adult S. japonicum; adult worms, 10 μM, 72 h) | Killing activity 24hr (adult S. japonicum; adult worms, 25 μM, 24 h) | Killing activity 48hr (adult S. japonicum; adult worms, 25 μM, 48 h) | Killing activity 24hr (adult S. japonicum; adult worms, 50 μM, 24 h) | Killing activity 48hr (adult S. japonicum; adult worms, 50 μM, 48 h) | further results
N#Cc1c(-c2ccc(COc3ccc4ccccc4c3C=O)cc2)no[n+]1[O-] [Compound 27] | did not inhibit | > 20 µM | 9.1% | 9.1% | 10.6% | 14.9% | 25.7% | 27% | 40% | 44.4% | 15.6%D | 24.4%D | 30.0%D | n.e. | n.e. | 62.5%D | sluggish | sluggish | sluggish | sluggish | killing at 50 µM (juvenile S. japonicum; [9]): 46.7%; killing at 25 µM (adult S. japonicum; Schistosoma japonicum, adult worms, 25 μM, 72 h, read-out: Killing activity 72hr): 75%; killing at 50 µM (adult S. japonicum; Schistosoma japonicum, adult worms, 50 μM, 72 h, read-out: Killing activity 72hr): 87.5%; killing at 100 µM (adult S. japonicum; [10]): 22.2%; killing at 100 µM (adult S. japonicum; [11]): 33.3%; killing at 100 µM (adult S. japonicum; [12]): 77.8%
N#Cc1c(-c2ccc(OCCCOc3ccc(-c4no[n+]([O-])c4C#N)cc3)cc2)no[n+]1[O-] [Compound 21] | did not inhibit SjTGR; also recorded: neither did they inhibit the SjTGR activity | > 20 µM | – | – | – | – | – | – | – | – | 30.0%D | 33.3%D | 56.7%D | n.e. | sluggish | sluggish | n.e | 100%D | 66.7%D | 100%D | Killing activity 24hr (juvenile S. japonicum; 2 μM, 24 h): 22.5%D; Killing activity 48hr (juvenile S. japonicum; 2 μM, 48 h): 22.5%D; Killing activity 72hr (juvenile S. japonicum; 2 μM, 72 h): 27.5%D; Killing activity 24hr (juvenile S. japonicum; 5 μM, 24 h): 26.7%D; Killing activity 48hr (juvenile S. japonicum; 5 μM, 48 h): 26.7%D; Killing activity 72hr (juvenile S. japonicum; 5 μM, 72 h): 30.0%D; Killing activity 24hr (juvenile S. japonicum; 50 μM, 24 h): 33.3%D; Killing activity 48hr (juvenile S. japonicum; 50 μM, 48 h): 38.3%D; Killing activity 72hr (juvenile S. japonicum; 50 μM, 72 h): 67.0%D; Killing activity 72hr (adult S. japonicum; adult worms, 25 μM, 72 h): 100%D; Killing activity 72hr (adult S. japonicum; adult worms, 50 μM, 72 h): 100%D; Killing activity 24hr (adult S. japonicum; adult worms, 100 μM, 24 h): 75.0%D; Killing activity 48hr (adult S. japonicum; adult worms, 100 μM, 48 h): 100%D; Killing activity 72hr (adult S. japonicum; adult worms, 100 μM, 72 h): 100%D
[O-][n+]1onc(-c2ccc(Br)cc2)c1CO [Compound 4c] | – | 8.6 µM | 15% | 20% | 20% | 24.5% | 24.5% | 26.4% | 25.8% | 25.8% | 7.1%D | 14.3%D | 17.9%D | n.e. | n.e. | n.e. | n.e. | n.e. | n.e. | n.e. | mortality at 50 µM (juvenile S. japonicum; Schistosoma japonicum, 24 h, read-out: Mortality of juvenile worms): < 30%; killing at 50 µM (juvenile S. japonicum; [9]): 51.6%; mortality at 100 µM (adult S. japonicum; Schistosoma japonicum, read-out: Mortality of adult worms): 57.1 ± 2.3%; killing at 100 µM (adult S. japonicum; [10]): 57.1%; killing at 100 µM (adult S. japonicum; [11]): 71.4%; killing at 100 µM (adult S. japonicum; [12]): 71.4%; Killing activity 72hr (adult S. japonicum; adult worms, 25 μM, 72 h): n.e.; Killing activity 72hr (adult S. japonicum; adult worms, 50 μM, 72 h): n.e.
